The target of one data set is T1, ERβ LBD (Homo sapiens, UniProt Q92731).
T1 construct: pET28a+ vector containing ERβ LBD (residues from 261 to 500) along with an N-terminal His6-yBBr-TEV tag; His6 (N); yBBr (N); TEV cleavage site (N); made in house; host or cells: E. coli BL21(DE3) pLysS
The data set can be described thus: Competition fluorescence polarization (FP) binding assay with FITC-ERL4 probe. The protocol:
In addition to the PAMPA assay, to study the affinity of the first-generation ProLock™ stapled peptides to the Estrogen receptor p ligand-binding domain (ERβ LBD), a fluorescence polarization (FP) binding assay in competition format was used in the presence of the endogenous ERβ LBD ligand estradiol. Competition Fluorescence Polarization (FP) assay was performed on the peptides to determine their half-maximal effective concentration (EC50). To do this, FITC labeled ERL4 peptide (FITC-βAla-His-Pro-Leu-Leu-Nle-Arg-Leu-Leu-Leu-Ser-Pro-CONH2) was synthesized to be used as a fluorescence probe based on existing literature (Fuchs et al., Journal of the American Chemical Society 2013, 135 (11), 4364-4371). Direct FP was performed in black 384-well plates (Corning). The final volume of each assay well was 40 μL with constant concentration of FITC labeled ERL4 peptide (10 nM) and variable concentrations of ERβ LBD protein.
ERβ LBD expression and purification was performed as follows. BL21(DE3) pLysS E. coli cells were transformed with a pET28a+ vector containing ERβ LBD (residues from 261 to 500) along with an N-terminal His6-yBBr-TEV tag. An overnight culture in 10 mL of TB media containing 50 μg/mL kanamycin was prepared from a single bacterial colony. The overnight culture was subsequently added to 1 liter of autoclaved TB media containing 50 μg/mL kanamycin and shaken at 37° C. until an OD of 0.6-0.8 was reached. IPTG was added to the culture and left shaking for 6 hours. Bacterial culture was pelleted and resuspended in lysis buffer. Resuspended bacterial culture was incubated at 0° C. for 10 minutes before sonication at 65% amplitude with 10-sec cycles using a Branson Sonifier. The lysate was then cleared by centrifugation at 8000×g for 20 min. […] The expected molecular weight of the ERβ LBD protein is 30.8 KDa, which molecular weight was confirmed by SDS PAGE analysis. Purified ERβ LBD was concentrated to 90 μM and was stored at −80° C. buffer.
Competition FP assays were also employed. These were performed in black 384-well plates (Corning). The final volume of each assay well was 80 μL containing constant concentrations of estradiol (1 μM) and FITC labeled ERL4 (10 nM). The ERβ LBD concentration was held constant (200 nM) while varying the concentration of ProLock stapled peptides (3-fold dilution from 10 μM). Upon addition of samples to each well, the plate was centrifuged for 10 seconds at 3000 rpm and incubated at 4° C. for 1 hour. FP measurements were performed at room temperature with excitation and emission wavelengths at 485 and 535 nm using a Clariostar microplate reader (BMG Labtech). Each plate had high and low polarization samples, which are used to normalize the assay data. The competition FP results were analyzed by Prism 7 (GraphPad). The non-linear regression analysis of the data was used to determine the half-maximal effective concentration (EC50) of ProLock stapled peptides. […] The normalized FP values shown in FIG. 6 are mean±S.E.M of at least four independent replicates.

Data set [1] in a line: PAMPA (Parallel Artificial Membrane Permeability Assay).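 Note: Phospholipid-membrane PAMPA, donor and acceptor in DPBS pH 7.4 with 5% DMSO, 37 °C for 5 h, compound in each well quantified by reverse-phase HPLC-MS.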 Details: Papp at 5 h: dose or concentration left out as unconfirmed.
A short description of data set [2]: CHI Log D measurement (chromatographic hydrophobicity index). Conditions: reverse-phase HPLC, Phenomenex Gemini C-18 column, pH 7.4.
Another data set is described as follows: in vitro. Conditions: PAMPA, pH 7.4, PAMPA Pe. Details: dose or concentration left out as unconfirmed. In general terms: The PAMPA barrier holds no transporters, so it reflects passive diffusion.
The nature of another data set: physchem. Conditions: pH 7.4.
Data set [3] addresses T2, Estrogen receptor β ligand-binding domain (ERβ LBD), residues 261 to 500, with N-terminal His6-yBBr-TEV tag (UniProt Q92731 261-500).
T2 construct: range 261-500; Expressed in E. coli BL21(DE3) pLysS from pET28a+, purified by Ni-NTA and SEC; Assays were run in the presence of estradiol; also called ER LBD; not shown: N-terminal His6-yBBr-TEV tag
The data set can be described thus: competition fluorescence polarization; 200 nM ERβ LBD, 10 nM FITC-ERL4 probe, 1 µM estradiol.

Data set [4] concerns the target T2, Estrogen receptor β ligand-binding …. The data set can be described thus: direct fluorescence polarization; 10 nM probe, ERβ LBD titrated from 5 µM with estradiol; 1:1 binding model with Hill slope.

In brackets after ≈: the same amount, converted by molar mass. Where two headings read alike, the source gives them in different places. Starred links: 1 amine or outer side, 2 acyl side, 3 side chain; linkers in the order of their positions; H or OH if unused. Positions of bridges follow the written chain, without caps; N, C: chain ends. Non-standard residues stand in square brackets, D forms with d. Residues, ends and D or L forms follow the SMILES beside them. Primed or numbered codes have the meaning given here. *: point of attachment. PL3 = (R)-N-acetyl-2-(2'-propenyl)proline (alpha-allyl proline), stapling residue, C=CC[C@@]1(C(=O)*)CCCN1C(C)=O; PL3″ = (R)-2-(2'-propenyl)proline (alpha-allyl proline), N-acetylated, C=CC[C@@]1(C(=O)*)CCCN1C(C)=O; FITC = O=C1OC2(c3ccc(O)cc3Oc3cc(O)ccc32)c2ccc(NC(=S)*)cc21; X1 = O=C([C@]1(CC=[*:3])CCCN1[*:1])[*:2]; S5 = C=CCCC[C@](C)(N)C(=O)O; Nle = CCCC[C@H](N)C(=O)O; βAla = NCCC(=O)O Bounds are passed on as bounds.

Consider 7 molecules from US20230357320A1, “HELICAL STAPLED PEPTIDES AND USES THEREOF” (FOG PHARMACEUTICALS, INC., priority 2020, published 2023).

T2 sequence (Q92731 261-500): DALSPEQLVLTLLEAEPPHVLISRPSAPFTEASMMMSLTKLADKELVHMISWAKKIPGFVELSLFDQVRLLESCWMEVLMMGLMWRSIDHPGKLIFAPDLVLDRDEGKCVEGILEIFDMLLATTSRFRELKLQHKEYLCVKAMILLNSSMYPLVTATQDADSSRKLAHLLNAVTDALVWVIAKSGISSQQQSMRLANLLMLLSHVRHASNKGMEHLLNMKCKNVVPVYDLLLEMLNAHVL

The EC50 is the midpoint of the concentration-response curve. A word on the Papp: it is a coefficient for how fast a substance crosses the barrier. As a reminder, the chromatographic logD is a lipophilicity value derived from retention on a column. Take `CNC(=O)[C@H](Cc1ccc(O)cc1)NC(=O)[C@H](Cc1c[nH]cn1)NC(=O)[C@H](CC(C)C)NC(=O)[C@H](CC(C)C)NC(=O)[C@H](CCCNC(=N)N)NC(=O)[C@]1(C)CCCC=CC[C@]2(CCCN2C(C)=O)C(=O)N[C@@H](CC(C)C)C(=O)N[C@@H](CC(C)C)C(=O)N1` [PLL4-3, Ac-PL3-Leu-Leu-S5-Arg-Leu-Leu-His-Tyr-NHMe] (Ac-[X1]LL[S5]RLLHY-NHMe; staple 1-4): the EC50 on ERβ LBD stood at 700 nM. This molecule registered a Papp at 5 h in data set [1] (PAMPA, pH 7.4) of under 0.1 ×10⁻⁶ cm/s. Further, the “% Retention” value in data set [1] (Table 5, compound retained in solution at the end of the PAMPA assay compared to the input sample) is listed as 73 ± 4%. The molecule also came in with a chromatographic logD in data set [2] of 2.7.

By solubility is commonly meant how much of the substance goes into solution per volume. As for `CNC(=O)[C@H](Cc1ccc(O)cc1)NC(=O)[C@@H](NC(=O)[C@H](CC(C)C)NC(=O)[C@H](CC(C)C)NC(=O)[C@H](CC(N)=O)NC(=O)[C@]1(C)CCCC=CC[C@]2(CCCN2C(C)=O)C(=O)N[C@@H](CCCCN)C(=O)N[C@@H](CC(C)C)C(=O)N1)[C@@H](C)O` [PLL4-5, Ac-PL3-Lys-Leu-S5-Asn-Leu-Leu-Thr-Tyr-NHMe] (Ac-[X1]KL[S5]NLLTY-NHMe; staple 1-4), the “PAMPA Pe” value is on record as 0.7 ± 0.2 (×10^−6) cm/sec. The EC50 on ERβ LBD (binding towards the ERβ LBD, read-out: EC50) stood at 3000 nM. Under “PAMPA”, the “% Retention” value is given as 74 ± 3%. In the data set “in vitro”, this molecule displayed a Papp at 5 h of 0.7 ± 0.2 ×10⁻⁶ cm/s. In “physchem”, the solubility worked out at 880 µM (≈ 1030 µg/mL). Moreover, the chromatographic logD in data set [2] came to 1.8.

B1: PLL5-12 (Ac-PL3-Leu-Leu-S5-Tyr-Leu-Leu-Gln-NHMe) (peptide)
peptide: Ac-[PL3]LL[S5]YLLQ-NHMe
modifications: staple 1-4; also: staple isomer 2, cis olefin
notes: Second-generation ProLock stapled peptide; X marks non-standard residues
Regarding B1, in data set [3], the EC50 is 2000 nM.

B2: FITC labeled ERL4 peptide (FITC-βAla-His-Pro-Leu-Leu-Nle-Arg-Leu-Leu-Leu-Ser-Pro-CONH2) (peptide)
peptide: {FITC}-[βAla]HPLL[Nle]RLLLSP-NH2
notes: Fluorescent probe of the FP assays; also called FITC-ERL4; FITC-ERL4 probe
As a reminder, the Kd is the equilibrium constant for the complex coming apart. B2 yielded a Kd in data set [4] of 160 nM.

B3: PLL5-1 (Ac-PL3-Leu-Leu-S5-Tyr-Leu-Leu-Asp-Tyr-NHMe) (peptide)
peptide: Ac-[PL3″]LL[S5]YLLDY-NHMe
modifications: staple 1-4; also: staple isomer 2, cis olefin
notes: as for B1
As to B3, a half-maximal response in data set [3] (EC50) required 3900 nM.

B4: PLL5-3 (Ac-PL3-Leu-Leu-S5-Tyr-Leu-Leu-Gln-Tyr-NHMe) (peptide)
peptide: Ac-[PL3]LL[S5]YLLQY-NHMe
modifications: staple 1-4; also: staple isomer 2, cis olefin
notes: as for B1
B4 returned an EC50 in data set [3] of 500 nM.

B5: PLL5-2 (Ac-PL3-Leu-Leu-S5-Tyr-Leu-Leu-Asp-Asp-NHMe) (peptide)
peptide: Ac-[PL3]LL[S5]YLLDD-NHMe
modifications: staple 1-4; also: staple isomer 2, cis olefin
notes: as for B1
As for B5, the EC50 in data set [3] is 1200 nM.
